From US20250188043A1 (ReproNovo SA, priority 2023, published 2025)
Values after ≈ are worked out from the molar mass of the structure shown. Blank lines part the entries; values can stand above or below the molecule they belong to.

Assays:
[1] = Long term storage stability of crystalline Form A leflutrozole; assay type: physicochemical
Method: The test for determination of the amount of related substance impurities uses reverse phase HPLC analysis with UV detection (230 nm). The solvents are acetonitrile/water/diammonium hydrogen phosphate buffer/O-phosphirc acid 85%. The column is Macherey Nagel, Nucleosil 100 C18HD (length=150 mm, internal diameter 3.0 mm) or equivalent L1 USP HPLC Columns.
Stability data under accelerated conditions are for up to 6 months at 40° C./75% RH and up to 3 months at 50° C. […].
Packaging A: Double low density polyethylene bags in fiber drugms; water permeation <14.0 mg/day/L. Packaging D: Brown glass bottles type C sealed in triple laminated foil bags or quadruple laminated foil bags of type B; water permeation <0.5 mg/day/L. Packaging H: Double polythene bags, sealed, in 400 mL mini-metallic drugs; water permeation 5 mg/day/L. Packaging J: HDPE bottles from Nalgene (30 mL) with polypropylene screw caps and sealed in alubags of type B. Packaging K: Polyethylene bag containing the drug inside quadruple laminated foil bags; water permeation <0.5 mg/day/L.

Kinetic solubility = assay type: physicochemical; settings: aqueous buffer, kinetic from dmso stock; room temperature, aqueous solutions between pH 1.0 and pH 6.8
[2] = tested on: obese and overweight men with hypogonadism and low total motile sperm count; test: Randomized, double-blind phase IIb trial of oral leflutrozole; assay type: in vivo, human; settings: for Semen Volume, change from baseline, LS mean difference (95% CI) vs. placebo / Sperm Morphology, change from baseline, LS mean difference (95% CI) vs. placebo / Sperm Motility, change from baseline, LS mean difference (95% CI) vs. placebo / Spermatozoa, change from baseline, LS mean difference (95% CI) vs. placebo / Total Motile Sperm Count, change from baseline, LS mean difference (95% CI) vs. placebo: Week 20; for Estradiol, Initial: baseline; for population with testosterone normalization: day 8 of treatment (2nd visit); for Estradiol, Change: to week 24; for FSH increase / estradiol decrease / mean LH increase: week 24
Method: The primary endpoint of the study is a change in testosterone levels after 24 weeks of treatment. […] Normalization of testosterone, for the purposes of this trial, was considered to be between 300 and 1000 ng/dL (10.4 and 35 nmol/L, respectively). Levels above 1000 ng/dL are furthermore considered abnormal.

[3] = Metabolic stability in human liver microsomes; assay type: in vitro ADME
[4] = Dissolution experiments with capsules; assay type: physicochemical; settings: drug substance particle sizes up to D90 ≤35 μm
CYP2D6 = molecular target: T1, CYP2D6 (Homo sapiens, UniProt P10635); test: CYP inhibition, pooled human liver microsomes, probe substrates; assay type: in vitro ADME; settings: up to 100 μM
T1 construct: assessed by pooled human liver microsomes using enzyme selective probe substrates; from tissue; host or cells: pooled human liver microsomes

CYP2A6 = molecular target: T2, CYP2A6 (Homo sapiens, UniProt P11509); test: as above; assay type: in vitro ADME
T2 construct: assessed by pooled human liver microsomes using enzyme selective probe substrates; from tissue; host or cells: pooled human liver microsomes
T2 sequence (P11509 1-494): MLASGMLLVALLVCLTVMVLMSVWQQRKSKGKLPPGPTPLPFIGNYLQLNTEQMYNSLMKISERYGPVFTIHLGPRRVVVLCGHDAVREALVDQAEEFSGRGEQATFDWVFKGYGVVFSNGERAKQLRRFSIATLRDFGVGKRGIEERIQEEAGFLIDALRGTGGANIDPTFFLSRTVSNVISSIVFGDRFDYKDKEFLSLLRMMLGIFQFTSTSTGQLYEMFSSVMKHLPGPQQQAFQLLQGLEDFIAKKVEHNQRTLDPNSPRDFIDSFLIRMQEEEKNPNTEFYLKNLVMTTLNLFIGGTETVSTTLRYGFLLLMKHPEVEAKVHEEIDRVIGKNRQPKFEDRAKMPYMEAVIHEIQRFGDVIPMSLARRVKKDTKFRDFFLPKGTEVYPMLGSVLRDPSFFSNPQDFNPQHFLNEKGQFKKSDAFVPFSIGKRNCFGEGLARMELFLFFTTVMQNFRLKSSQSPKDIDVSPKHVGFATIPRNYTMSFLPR

[5] = 36 months, 25° C., double polyethylene liner and black polyethylene keg
[6] = more than 36 months at room temperature

T1 sequence (P10635 whole entry): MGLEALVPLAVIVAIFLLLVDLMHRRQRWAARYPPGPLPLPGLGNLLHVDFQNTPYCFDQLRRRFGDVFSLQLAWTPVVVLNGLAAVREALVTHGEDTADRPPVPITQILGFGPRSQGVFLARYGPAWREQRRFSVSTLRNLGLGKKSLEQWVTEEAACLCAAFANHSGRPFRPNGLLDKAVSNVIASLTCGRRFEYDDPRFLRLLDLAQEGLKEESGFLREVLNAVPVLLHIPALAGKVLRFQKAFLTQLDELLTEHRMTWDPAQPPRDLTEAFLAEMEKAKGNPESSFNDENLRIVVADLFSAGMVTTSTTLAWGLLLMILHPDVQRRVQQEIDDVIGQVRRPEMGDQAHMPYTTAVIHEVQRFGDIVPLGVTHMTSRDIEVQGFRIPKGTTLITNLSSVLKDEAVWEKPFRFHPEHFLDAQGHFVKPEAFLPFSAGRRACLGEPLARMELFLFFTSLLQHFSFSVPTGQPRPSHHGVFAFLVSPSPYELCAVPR

Combined related substance impurities ([1]; 5° C. ± 3° C. in packaging D, Initial): 0.60% | Combined related substance impurities ([1]; 25° C./60% RH in packaging K, 3 months): 0.60% | Combined related substance impurities ([1]; 25° C./60% RH in packaging K, Initial): 0.60% | impurity Q2 (substance of unknown structure) [1, 5]: 0.11 % w/w | impurity compound of formula (III) [1, 5]: 0.14 % w/w | Combined related substance impurities ([1]; 40° C./75% RH in packaging A, 3 months): 0.60% | Combined related substance impurities ([1]; 40° C./75% RH in packaging A, Initial): 0.60% | Combined related substance impurities ([1]; 40° C./75% RH in packaging D, Initial): 0.60% | Combined related substance impurities ([1]; 40° C./75% RH in packaging K, 6 months): 0.60% | Combined related substance impurities ([1]; 40° C./75% RH in packaging K, Initial): 0.60% | Combined related substance impurities ([1]; 50° C./≤30% RH in packaging D, Initial): 0.60% | Combined related substance impurities ([1]; 50° C./≤30% RH in packaging K, Initial): 0.60% | stability of drug substance on storage (in words) ([1]; long term and accelerated storage conditions): very stable under all storage conditions | individual impurity developed [1, 6]: ≤ 0.8 % HPLC peak area | total amount of impurities [1, 6]: ≤ 2.0 % of the total HPLC peak area | time stable at room temperature ([1]; room temperature): more than 36 months | Combined related substance impurities ([1]; −20° C. ± 5° C./ambient RH in packaging D, Initial): 0.60% | Combined related substance impurities ([1]; −20° C. ± 5° C./ambient RH in packaging K, Initial): 0.60% | solubility kinetic (Kinetic solubility): ~0.0607 µg/mL (≈ 0.2 µM)
Structure (SMILES): N#Cc1ccc(C(F)(c2ccc(C#N)cc2)n2cncn2)cc1 [Form A leflutrozole, 4-[(4-cyanophenyl)-fluoro-(1,2,4-triazol-1-yl)methyl]benzonitrile]

half-life [3]: 3.35 h | CLint scaled ([3]; read-out: intrinsic clearance (CLint)): 6.9 mL/min/kg | influence of particle size on dissolution of capsules [4]: no relevant influence on dissolution | IC50 (CYP2D6): > 50000 nM | Ki (CYP2A6): 2560 nM
Structure (SMILES): N#Cc1ccc(C(F)(c2ccc(C#N)cc2)n2cncn2)cc1 [leflutrozole, 4-[(4-cyanophenyl)-fluoro-(1,2,4-triazol-1-yl)methyl]benzonitrile]
Estradiol, Week 24 Measurement ([2]; 0.1 mg): 12.94 pg/mL | subjects with normalized testosterone (300-1000 ng/dL), number ([2]; 0.1 mg weekly, after 24 weeks): 59 subjects | Semen Volume, change from baseline, LS mean difference (95% CI) vs. placebo ([2]; 0.1 mg): 0.7 mL | Sperm Morphology, change from baseline, LS mean difference (95% CI) vs. placebo ([2]; 0.1 mg): −1.9 % | Sperm Motility, change from baseline, LS mean difference (95% CI) vs. placebo ([2]; 0.1 mg): 2.7 % | Spermatozoa, change from baseline, LS mean difference (95% CI) vs. placebo ([2]; 0.1 mg): 130.4 (−65.3, 10^6/ejaculate | Total Motile Sperm Count, change from baseline, LS mean difference (95% CI) vs. placebo ([2]; 0.1 mg): 86.3 (−24.5, 10^6/ejaculate | Estradiol, Initial ([2]; 0.1 mg): 24.69 pg/mL | population with testosterone normalization ([2]; 0.1 mg): 80.6% | Estradiol, Change ([2]; 0.1 mg): -11.75 pg/mL | FSH increase ([2]; 0.1 mg): 4.836 mlU/mL | estradiol decrease ([2]; 0.1 mg): 11.8 pg/mL | mean LH increase ([2]; 0.1 mg): 2.108 mlU/mL | Estradiol, Week 24 Measurement ([2]; 0.3 mg): 11.84 pg/mL | subjects with normalized testosterone (300-1000 ng/dL), number ([2]; 0.3 mg weekly, after 24 weeks): 62 subjects | Semen Volume, change from baseline, LS mean difference (95% CI) vs. placebo ([2]; 0.3 mg): 0.8 mL | Sperm Morphology, change from baseline, LS mean difference (95% CI) vs. placebo ([2]; 0.3 mg): −2.6 % | Sperm Motility, change from baseline, LS mean difference (95% CI) vs. placebo ([2]; 0.3 mg): −0.1 % | Spermatozoa, change from baseline, LS mean difference (95% CI) vs. placebo ([2]; 0.3 mg): 90.2 (−126.5, 10^6/ejaculate | Total Motile Sperm Count, change from baseline, LS mean difference (95% CI) vs. placebo ([2]; 0.3 mg): 54.2 (−77.3, 10^6/ejaculate | Estradiol, Initial ([2]; 0.3 mg): 24.80 pg/mL | population with testosterone normalization ([2]; 0.3 mg): 89.1% | Estradiol, Change ([2]; 0.3 mg): -12.96 pg/mL | FSH increase ([2]; 0.3 mg): 6.183 mlU/mL | estradiol decrease ([2]; 0.3 mg): 13 pg/mL | mean LH increase ([2]; 0.3 mg): 3.560 mlU/mL | Estradiol, Week 24 Measurement ([2]; 1.0 mg): 8.63 pg/mL | subjects with normalized testosterone (300-1000 ng/dL), number ([2]; 1.0 mg weekly, after 24 weeks): 63 subjects | subjects with normalized testosterone (300-1000 ng/dL), percent ([2]; 1.0 mg weekly, after 24 weeks): 94.0% | Semen Volume, change from baseline, LS mean difference (95% CI) vs. placebo ([2]; 1.0 mg): 1.4 mL | Sperm Morphology, change from baseline, LS mean difference (95% CI) vs. placebo ([2]; 1.0 mg): −4.1 % | Sperm Motility, change from baseline, LS mean difference (95% CI) vs. placebo ([2]; 1.0 mg): −1.2 % | Spermatozoa, change from baseline, LS mean difference (95% CI) vs. placebo ([2]; 1.0 mg): 270.1 (65.0, 10^6/ejaculate | Total Motile Sperm Count, change from baseline, LS mean difference (95% CI) vs. placebo ([2]; 1.0 mg): 127.7 (12.6, 10^6/ejaculate | Estradiol, Initial ([2]; 1.0 mg): 23.47 pg/mL | population with testosterone normalization ([2]; 1.0 mg): 89.1% | Estradiol, Change ([2]; 1.0 mg): -14.84 pg/mL | FSH increase ([2]; 1.0 mg): 8.282 mlU/mL | estradiol decrease ([2]; 1.0 mg): 14.8 pg/mL | mean LH increase ([2]; 1.0 mg): 5.209 mlU/mL | primary endpoint (≥75% of subjects with normalization of testosterone by week 24) ([2]; all leflutrozole treatment groups): met in all leflutrozole treatment groups | changes from baseline vs placebo in triglycerides, HbA1c, glucose and C-reactive protein ([2]; during the study, p>0.05): No statistically significant changes | insulin and HOMA-IR compared with placebo ([2]; leflutrozole treatment groups, none met statistical significance): Consistent decreases | semen volume improvement, LS mean difference (95% CI) ([2]; stated as across all active treatment arms): 1.4 (0.4, 2.3) mL | sperm count compared to placebo (in words) ([2]; weeks 12 and 20, all three treatment arms): increases were observed across all three treatment arms compared to placebo
